The results in this text go back to ChEMBL document CHEMBL5050859, “Gpx4 inhibitors, pharmaceutical compositions thereof, and their use for treating gpx4-mediated diseases” (2021).

The subject of the assay is Huh-7. Description: Antiproliferative activity against human Huh-7 cells after 24 hrs by Cell Titer Glo assay. It counts as functional, cell-based. Conditions: Huh-7, 24 h.

pEC50: −log10 of the molar value.

As to `C#CC(=O)N(c1cccc(Cl)c1)C(C(=O)NCc1ccccc1)c1cccc(OCC(=O)OC)c1` (configuration not stated), the pEC50 (in general, −log10 of the EC50, conventionally taken in molar units) is 7.00.

`C#CC(=O)N(c1cccc(F)c1)C(C(=O)NCc1ccccc1)c1cccc(N)c1` (configuration not stated) showed a pEC50 of 7.00.

The compound `C#CC(=O)N(c1cc(Cl)ccc1F)C(C(=O)NCc1ccccc1)c1ccc(N)cc1` (configuration not stated) gave a pEC50 of at least 7.00.

The compound `C#CC(=O)N(c1cccc(NC(C)=O)c1)C(C(=O)NCc1ccccc1)c1ccc(N)cc1` (configuration not stated) showed a pEC50 of 5.70.

The compound `C#CC(=O)N(c1cccc(Cl)c1)C(C(=O)NCc1ccccc1)c1ccccc1F` (configuration not stated) showed a pEC50 of at least 7.00.

Turning to `C#CC(=O)N(c1ccc2ncsc2c1)C(C(=O)NCc1ccccc1)c1ccccc1` (configuration not stated), the pEC50 is 7.00.

Compound `C#CC(=O)N(c1cccc(O)c1)C(C(=O)NCc1ccccc1)c1ccc(N)cc1` (configuration not stated) gave a pEC50 of 5.70.

Regarding `C#CC(=O)N(c1ccc(OC)c(Cl)c1)C(C(=O)NCc1ccccc1)c1ccc(N)cc1` (configuration not stated), the pEC50 was at least 7.00.

In turn, `C#CC(=O)N(c1ccc(O)cc1)C(C(=O)NCc1ccccc1)c1cccc(N)c1` (configuration not stated) gave a pEC50 of 5.70.

With `C#CC(=O)N(c1ccc2c(c1)OC(F)(F)O2)C(C(=O)NCc1ccccc1)c1ccccc1` (configuration not stated), the pEC50 is at least 7.00.

As for `C#CC(=O)N(c1ccc(CO)cc1)C(C(=O)NC(C)(C)C)c1ccc(N)cc1` (configuration not stated), the pEC50 was 5.70.

`C#CC(=O)N(c1cccc(S(C)(=O)=O)c1)C(C(=O)NC(C)(C)C)c1ccc(N)cc1` (configuration not stated) had a pEC50 of 5.70.

Turning to `C#CC(=O)N(c1cccc(OC)c1)C(C(=O)NCc1ccccc1)c1cccc(N)c1` (configuration not stated), the pEC50 is 7.00.

`C#CC(=O)N(c1cccc(Cl)c1)C(C(=O)NCc1ccccc1)c1cccs1` (configuration not stated) had a pEC50 of at least 7.00.

Take `C#CC(=O)N(c1cccc(C(=O)OC)c1)C(C(=O)NCc1ccccc1)c1ccccc1` (configuration not stated): the pEC50 was at least 7.00.

Compound `C#CC(=O)N(Cc1ccccc1)C(C(=O)NCc1ccccc1)c1cccc(N)c1` (configuration not stated) gave a pEC50 of 6.30.

`C#CC(=O)N(c1ccc(Cl)cc1)C(C(=O)NCc1ccccc1)c1ccc(N)cc1` (configuration not stated) showed a pEC50 of at least 7.00.

The compound `C#CC(=O)N(c1ccc(NS(C)(=O)=O)cc1)C(C(=O)NC(C)(C)C)c1ccc(N)cc1` (configuration not stated) showed a pEC50 below 5.00.

For `C#CC(=O)N(c1ccc(NS(C)(=O)=O)cc1)C(C(=O)NCc1ccccc1)c1ccc(N)cc1` (configuration not stated), the pEC50 was 5.70.

The compound `C#CC(=O)N(c1cccc(OC)c1)C(C(=O)NCc1ccccc1)c1ccc(N)cc1` (configuration not stated) had a pEC50 of at least 7.00.

Turning to `C#CC(=O)N(c1ccc(O)cc1)C(C(=O)NCc1ccccc1)c1ccc(N)cc1` (configuration not stated), the pEC50 was 5.70.

As for `C#CC(=O)N(c1ccc(NS(C)(=O)=O)cc1)C(C(=O)NC(C)(C)C)c1cccc(N)c1` (configuration not stated), the pEC50 is below 5.00.

The compound `C#CC(=O)N(c1ccc2nsnc2c1)C(C(=O)NCc1ccccc1)c1ccccc1` (configuration not stated) showed a pEC50 of at least 7.00.

Turning to `C#CC(=O)N(c1ccc(S(N)(=O)=O)cc1)C(C(=O)NCc1ccccc1)c1ccc(N)cc1` (configuration not stated), the pEC50 was below 5.00.

Compound `C#CC(=O)N(c1cccc(NS(C)(=O)=O)c1)C(C(=O)NCc1ccccc1)c1cccc(N)c1` (configuration not stated) gave a pEC50 of 5.70.

`C#CC(=O)N(c1ccc2scnc2c1)C(C(=O)NCc1ccccc1)c1ccccc1` (configuration not stated): the pEC50 is at least 7.00.

As for `C#CC(=O)N(c1cccc(Cl)c1)C(C(=O)NCc1ccccc1)c1ccccc1` (configuration not stated), the pEC50 was at least 7.00.

`C#CC(=O)N(c1ccc(C(=O)OC)cc1)C(C(=O)NC(C)(C)C)c1ccc(N)cc1` (configuration not stated) gave a pEC50 of at least 7.00.

Consider `C#CC(=O)N(c1cccc(C(=O)OC)c1)C(C(=O)NCc1ccccc1)c1cccs1` (configuration not stated), for which the pEC50 is at least 7.00.

For `C#CC(=O)N(c1cccc(Cl)c1)C(C(=O)NCc1ccccc1)C1CCC(C(=O)OC)CC1` (configuration not stated), the pEC50 was 7.00.

Compound `C#CC(=O)N(c1ccc(O)cc1)C(C(=O)NC(C)(C)C)c1ccc(N)cc1` (configuration not stated) had a pEC50 below 5.00.

`C#CC(=O)N(c1cccc(Cl)c1)C(C(=O)NC(C)(C)C)c1cccc(N)c1` (configuration not stated) had a pEC50 of 7.00.

In turn, `C#CC(=O)N(c1cccc(N)c1)C(C(=O)NCc1ccccc1)c1ccc(N)cc1` (configuration not stated) gave a pEC50 of 6.30.

For the compound `C#CC(=O)N(c1cc(Cl)ccc1F)C(C(=O)NCc1ccccc1)c1cccc(N)c1` (configuration not stated), the pEC50 was at least 7.00.

Compound `C#CC(=O)N(c1cccc(C#N)c1)C(C(=O)NCc1ccccc1)c1cccc(N)c1` (configuration not stated) had a pEC50 of 7.00.

In turn, `C#CC(=O)N(c1ccc(C#N)cc1)C(C(=O)NCc1ccccc1)c1cccc(N)c1` (configuration not stated) showed a pEC50 of at least 7.00.

As for `C#CC(=O)N(c1cccc(Cl)c1F)C(C(=O)NCc1ccccc1)c1cccc(N)c1` (configuration not stated), the pEC50 was at least 7.00.

The compound `C#CC(=O)N(c1cccc(Cl)c1)C(C(=O)NCc1ccccc1)c1ccc(F)cc1` (configuration not stated) showed a pEC50 of at least 7.00.

With `C#CC(=O)N(c1cccc(Cl)c1F)C(C(=O)NCc1ccccc1)c1ccccc1` (configuration not stated), the pEC50 was 7.00.

With `C#CC(=O)N(c1cccc(CO)c1)C(C(=O)NCc1ccccc1)c1cccc(N)c1` (configuration not stated), the pEC50 was 5.70.

`C#CC(=O)N(c1ccc(S(N)(=O)=O)cc1)C(C(=O)NC(C)(C)C)c1ccc(N)cc1` (configuration not stated) showed a pEC50 below 5.00.

`C#CC(=O)N(c1cccc2c1OCO2)C(C(=O)NCc1ccccc1)c1ccccc1` (configuration not stated) gave a pEC50 of 7.00.

Take `C#CC(=O)N(c1ccc(O)cc1)C(C(=O)NC(C)(C)C)c1cccc(N)c1` (configuration not stated): the negative logarithm of the EC50 (pEC50) was 5.70. Compared with the last compound, the pEC50 is 1.30 log units lower.

`C#CC(=O)N(c1ccc(CO)cc1)C(C(=O)NC(C)(C)C)c1cccc(N)c1` (configuration not stated) showed a pEC50 of 5.70.

As to `C#CC(=O)N(c1ccc(OC)cc1)C(C(=O)NC(C)(C)C)c1ccc(N)cc1` (configuration not stated), the pEC50 is 6.30. Against the preceding compound, the pEC50 is 0.60 log units higher.

Regarding `C#CC(=O)N(c1ccc2c(c1)OCO2)C(C(=O)NCc1ccccc1)c1ccccc1` (configuration not stated), the pEC50 was at least 7.00.

The compound `C#CC(=O)N(c1ccc(C#N)cc1)C(C(=O)NCc1ccccc1)c1ccc(N)cc1` (configuration not stated) had a pEC50 of at least 7.00.

Consider `C#CC(=O)N(c1ccc(N)cc1)C(C(=O)NC(C)(C)C)c1ccc(N)cc1` (configuration not stated), for which the pEC50 was 5.70.

As for `C#CC(=O)N(c1cccc(Cl)c1)C1(C(=O)NCc2ccccc2)CCC(C(=O)OC)CC1` (configuration not stated), the negative logarithm of the EC50 (pEC50) was at least 7.00.

As for `C#CC(=O)N(c1cccc2nsnc12)C(C(=O)NCc1ccccc1)c1ccccc1` (configuration not stated), the pEC50 was at least 7.00.

Take `C#CC(=O)N(c1cccc(Cl)c1)C(C(=O)NCc1ccccc1)C1CC1` (configuration not stated): the pEC50 is 7.00.

The compound `C#CC(=O)N(c1ccc(C(=O)OC)cc1)C(C(=O)NCc1ccccc1)c1ccc(N)cc1` (configuration not stated) had a negative-log EC50 (pEC50) of at least 7.00.

`C#CC(=O)N(c1ccc(NC(C)=O)cc1)C(C(=O)NC(C)(C)C)c1cccc(N)c1` (configuration not stated) had a pEC50 of 5.70.

`C#CC(=O)N(c1cccc(C(=O)OC)c1)C(C(=O)NCc1ccccc1)c1ccc(N)cc1` (configuration not stated) gave a pEC50 of at least 7.00.

In the case of `C#CC(=O)N(c1cccc(S(C)(=O)=O)c1)C(C(=O)NCc1ccccc1)c1ccccc1` (configuration not stated), the pEC50 is 7.00.

Consider `C#CC(=O)N(c1ccc(OC)cc1)C(C(=O)NC(C)(C)C)c1cccc(N)c1` (configuration not stated), for which the pEC50 is 6.30.

With `C#CC(=O)N(c1ccc(S(N)(=O)=O)cc1)C(C(=O)NCc1ccccc1)c1cccc(N)c1` (configuration not stated), the pEC50 is below 5.00.

The compound `C#CC(=O)N(c1cccc(CO)c1)C(C(=O)NCc1ccccc1)c1ccc(N)cc1` (configuration not stated) had a pEC50 of 5.70.

`C#CC(=O)N(c1ccc(OC)cc1)C(C(=O)NCc1ccccc1)c1cccc(N)c1` (configuration not stated) had a pEC50 of at least 7.00.

Compound `C#CC(=O)N(c1cccc(NC(C)=O)c1)C(C(=O)NCc1ccccc1)c1cccc(N)c1` (configuration not stated) showed a pEC50 of 5.70.

`C#CC(=O)N(c1ccc(OC)c(Cl)c1)C(C(=O)NC(C)(C)C)c1cccc(N)c1` (configuration not stated) had a pEC50 of 7.00. This pEC50 lies 1.30 log units higher than the previous one.

Take `C#CC(=O)N(c1cccc(Cl)c1)C(C(=O)NCc1ccccc1)c1cccc(N)c1` (configuration not stated): the pEC50 is at least 7.00.

`C#CC(=O)N(c1ccn(C)c(=O)c1)C(C(=O)NCc1ccccc1)c1ccccc1` (configuration not stated) showed a pEC50 of 5.70.

With `C#CC(=O)N(c1ccc(OC)c(Cl)c1)C(C(=O)NCc1ccccc1)c1ccccc1` (configuration not stated), the pEC50 is at least 7.00.

With `C#CC(=O)N(c1cccc(Cl)c1)C(C(=O)NCc1ccccc1)c1cccc(CCO)c1` (configuration not stated), the pEC50 is 7.00.

`C#CC(=O)N(c1ccc(OC)c(Cl)c1)C(C(=O)NCc1ccccc1)c1cccc(N)c1` (configuration not stated) gave a pEC50 of at least 7.00.

`C#CC(=O)N(Cc1ccc(C(=O)OC)cc1)C(C)C(=O)NCc1ccccc1` (configuration not stated) had a pEC50 of 7.00.

`C#CC(=O)N(c1cccc(Cl)c1)C(C(=O)NCc1ccccc1)C1CCOCC1` (configuration not stated): the pEC50 is 6.30.

`C#CC(=O)N(c1cccc(C#N)c1)C(C(=O)NCc1ccccc1)c1ccccc1` (configuration not stated) gave a pEC50 of at least 7.00.

As to `C#CC(=O)N(c1ccc(N)cc1)C(C(=O)NC(C)(C)C)c1cccc(N)c1` (configuration not stated), the pEC50 is 5.70.

`C#CC(=O)N(c1cccc(OC)c1)C(C(=O)NC(C)(C)C)c1ccc(N)cc1` (configuration not stated) gave a pEC50 of 7.00. This pEC50 is 1.30 log units higher than that of the compound before.

With `C#CC(=O)N(c1ccc(NC(C)=O)cc1)C(C(=O)NC(C)(C)C)c1ccc(N)cc1` (configuration not stated), the pEC50 is 5.70. Compared with the last compound, the pEC50 is 1.30 log units lower.

The compound `C#CC(=O)N(c1ccc(C(=O)OC)cc1)C(C(=O)NCc1ccccc1)c1cccc(N)c1` (configuration not stated) showed a pEC50 of at least 7.00.

`C#CC(=O)N(c1cccc(F)c1)C(C(=O)NCc1ccccc1)c1ccc(N)cc1` (configuration not stated) showed a pEC50 of 7.00.

`C#CC(=O)N(c1ccc(Cl)c(Cl)c1)C(C(=O)NCc1ccccc1)c1ccc(N)cc1` (configuration not stated) showed a pEC50 of at least 7.00.

Take `C#CC(=O)N(c1cccc(Cl)c1)C1(C(=O)NCc2ccccc2)CCCCC1`: the pEC50 is at least 7.00.

For the compound `C#CC(=O)N(c1cccc2c1CCC2=O)C(C(=O)NCc1ccccc1)c1ccccc1` (configuration not stated), the pEC50 was at least 7.00.

The compound `C#CC(=O)N(c1ccc(OC)cc1)C(C(=O)NCc1ccccc1)c1ccc(N)cc1` (configuration not stated) showed a pEC50 of at least 7.00.

`C#CC(=O)N(c1cccc(C(N)=O)c1)C(C(=O)NCc1ccccc1)c1ccc(N)cc1` (configuration not stated) had a pEC50 below 5.00.

The compound `C#CC(=O)N(c1cccc(Cl)c1Cl)C(C(=O)NCc1ccccc1)c1ccccc1` (configuration not stated) showed a negative-log EC50 (pEC50) of at least 7.00.

`C#CC(=O)N(c1ccc(S(C)(=O)=O)cc1)C(C(=O)NC(C)(C)C)c1ccc(N)cc1` (configuration not stated) had a negative-log EC50 (pEC50) of 5.70.

In the case of `C#CC(=O)N(c1cccc(C#N)c1)C(C(=O)NCc1ccccc1)c1ccc(N)cc1` (configuration not stated), the pEC50 is 7.00.

In turn, `C#CC(=O)N(c1cc(Cl)ccc1I)C(C(=O)NCc1ccccc1)c1ccccc1` (configuration not stated) showed a pEC50 of at least 7.00.

`C#CC(=O)N(c1cccc(C(N)=O)c1)C(C(=O)NCc1ccccc1)c1cccc(N)c1` (configuration not stated): the pEC50 is below 5.00.

As to `C#CC(=O)N(c1ccc(CO)cc1)C(C(=O)NCc1ccccc1)c1ccc(N)cc1` (configuration not stated), the pEC50 is 6.30.

As to `C#CC(=O)N(c1cccc(Cl)c1)C(C(=O)NCc1ccccc1)c1ccc(N)cc1` (configuration not stated), the pEC50 is at least 7.00.

`C#CC(=O)N(c1cccc(O)c1)C(C(=O)NCc1ccccc1)c1cccc(N)c1` (configuration not stated) showed a pEC50 of at least 7.00.
